Four sequences from patent publication US10087226B2, “Chimeric peptide that interacts with cell membrane gangliosides” (Universite D'Aix-Marseille, priority 2014, dated 2018) can be followed below.

Ends that are not written are not given here.

Data set [1] can be described thus: Lipid monolayer assay (Langmuir film balance), GM1 monolayer. The data set is classed as binding. Particulars: for interaction with GM1 monolayer (surface pressure increase): peptide 10 μM in subphase. As to the method: Peptide-cholesterol interactions were studied with the Langmuir film balance technique using a Kibron microtensiometer as previously described (Fantini and Yahi, 2011a).
In this experiment, a monolayer of ganglioside GM1 was prepared at the air-water interface and the peptide was injected in the aqueous subphase. The interaction of the peptide with the ganglioside was evidenced by an increase in the surface pressure of the monolayer, which was followed in real-time with a platinum probe (see Thakur et al, 2009 for a full description of the technique and its application to amyloid proteins). […] Then single mutants were assayed to identify which of the two His is actually critical for GM1 recognition. […] In this model, His-13 interacted with one GM1, and His-14 with the second one. Clearly, the cooperation between both GM1 molecules allowed an optimal interaction with the Aβ5-16 peptide driven by histidine residues. Conversely, because it is devoid of these histidine residues, the glycolipid-binding domain of α-synuclein (α-syn34-45) has a marked preference for ganglioside GM3 instead of GM1.

A short description of data set [2]: Lipid monolayer assay, GD1a monolayer. The data set is classed as binding. The note with it: peptide 10 μM in aqueous subphase.
A short description of data set [3]: Lipid monolayer assay, GM4 monolayer. Particulars: peptide 10 μM in aqueous subphase. Format: binding.
A short description of data set [4]: Lipid monolayer assay, GD3 monolayer. Particulars: peptide 10 μM in aqueous subphase. Format: binding.
Data set [5] in a line: Lipid monolayer assay, GM3 monolayer. Format: binding.
A further data set has as its system SH-SY5Y cells. Kind of data set: Calcium measurements, amyloid pore formation induced by Aβ1-42. The data set is classed as cell-based, human. As for the experimental part:
A. In a first experiment, SH-SY5Y cells were treated with Aβ1-42peptide (220 nM), and Ca^2+ dependent fluorescence was analyzed (top curve). In a second series of experiments, Aβ1-42 and the chimeric α-syn34-45/HH peptide (both 220 nM) were mixed extemporaneously directly injected onto the cells (C1 and C2 curves corresponding to two separate experiments). The C3 curve corresponds to the calcium response induced by the chimeric peptide alone. Results are expressed as mean±SD (n=100). In panel B, the same colors were used but the chimeric peptide was replaced by the wild-type α-syn34-45 peptide.
A. SH-SY5Y cells were treated with Aβ1-42 peptide (220 nM), and Ca^2+ dependent fluorescence was analyze. […] In absence of the chimeric peptide (− Pep Chim), amyloid pore formation induced by the Aβ1-42 peptide was evidenced by an increase of Ca^2+ fluorescence inside the cells. […] Warmer colors correspond to higher fluorescence (left scale).
Cells were plated in 35 mm culture dishes, grown during 72 h and loaded with 5 μM Fluo-4 AM (Invitrogen-Life Technologies, Saint Aubin, France) for 30 min in the dark, washed three times with HBSS (Gibco-Life Technologies, Saint-Aubin, France), and incubated for 20 min at 37° C. […] Fluorescence emission at 525 nm was imaged by a digital camera CDD (ORCA-ER Hamanatsu, Japan) after fluorescence excitation at 490 nm. […]

Data set [6] is described as follows: Lipid monolayer assay, GT1b monolayer. The note with it: peptide 10 μM in aqueous subphase. The data set is classed as binding.
Data set [7] deals with bEnd-3 cells co-cultured with glial C6 cells.
Procedure: (§1) These cells are plated at various densities ranging from 10.000 to 50.000 cells per well in two-compartment cell chambers (Greiner Bio-one). The lower compartment of the chamber is a well that is part of 12-well culture plate. The upper chamber is equipped with a permeable filter (mean pore diameter of 0.4 μm) onto which the cells are seeded. The cells are cultured in DMEM/F12 10% fetal calf serum.
(§2) At confluency, the cells formed a uniform monolayer with a transendothelial resistance of 150-200 Ω·cm^2 (measured with the EVOM apparatus, WPI). The transendothelial resistance reflects the presence of tight junctions overall the culture. These tight junctions efficiently prevent the paracellular passage of molecules. It is considered that the endothelium is tight when this value is >100 Ω·cm^2. Therefore, all experiments are performed with functional endothelial barriers. […]
(§3) The passage of the peptide through the endothelial barrier is thus followed in real-time. The concentration of the chimeric peptide is determined by spectrophotometry. […]
Data set [8] relates to bEnd-3 cells co-cultured with astrocytic CTX-TNA2 cells.
Procedure: as §1, §2, §3
Where [9] appears, read: ganglioside monolayer, peptide 10 μM in aqueous subphase.
[10] abbreviates: initial surface pressure 17.5 mN·m^−1.

As to “KEGVLYVGSKTK (listed as Homo sapiens) [α-syn34-45]”, the “Ganglioside specificity: critical pressure of insertion, GM1” value in [1] (setting [9]) is reported as “+ ((+) means a critical pressure of insertion <25 mN · m^−1)”. In [1] (monolayers at various initial surface pressures, x-axis intercept (FIG. 2D, 4C)), the “critical pressure of insertion (πc), GM1 monolayers” value turned out to be 25 mN·m^−1. Moreover, the “Ganglioside specificity: critical pressure of insertion, GD1a” value in data set [2] was “+ ((+) means a critical pressure of insertion <25 mN · m^−1)”. Further, in data set [3], the “Ganglioside specificity: critical pressure of insertion, GM4” value is given as “+ ((+) means a critical pressure of insertion <25 mN · m^−1)”. The “Ganglioside specificity: critical pressure of insertion, GD3” value in [4] is “+ ((+) means a critical pressure of insertion <25 mN · m^−1)”. Further, the “Ganglioside specificity: critical pressure of insertion, GM3” value in [5] (setting [9]) is given as “+++ ((+++) a critical pressure of insertion >25 mN · m^−1)”. Moreover, the “critical pressure of insertion (πc), GM3 monolayers” value in [5] (monolayers at various initial surface pressures, x-axis intercept (FIG. 2B)) turned out to be 37.5 mN·m^−1. Further, the “effect on elevation of intracellular Ca^2+ levels induced by Aβ1-42” value with SH-SY5Y cells (Aβ1-42 220 nM, peptide 220 nM (equimolar), Fluo-4 AM fluorescence) was “only very little inhibitory activity”. Also, the “Ganglioside specificity: critical pressure of insertion, GT1b” value in data set [6] is reported as “+ ((+) means a critical pressure of insertion <25 mN · m^−1)”.
Take “KEGVLYVGHHTK [α-syn34-45/HH, KEGVLYVGHHTK]”: the entries for the “transendothelial resistance after 24 hours of incubation with peptide” value in data set [7] and in data set [8] were 152 Ω·cm^2 and 153 Ω·cm^2, respectively. The “effect of peptide alone on Ca^2+ fluxes (intrinsic neurotoxicity)” value in the data set on SH-SY5Y cells (peptide alone, SH-SY5Y cells) was “little effect on Ca^2+ fluxes”.
Take “KEHHGVLYVGTK [reversed chimeric peptide]”: in [1] (setting [10]), the “interaction with GM1 monolayer (surface pressure increase)” value is “recognizes both GM1 and GM3 gangliosides”. In addition, the “interaction with GM3 monolayer (surface pressure increase, kinetics)” value in data set [5] (peptide in subphase, initial surface pressure 17.5 mN·m^−1) is “recognizes both GM1 and GM3 gangliosides”.
“RHDSGYEVHHQK (listed as Homo sapiens) [Aβ5-16]”: the “interaction with GM1 monolayer (surface pressure increase)” value in data set [1] (setting [10]) is reported as “surface pressure started to increase immediately after the injection”. The “time to maximum surface pressure, GM1 monolayer” value in [1] (peptide 10 μM, initial surface pressure 17.5 mN·m^−1) was 30 min.
